Reference: publication PMC9895975 (Scientific Reports, 2023)

Columns and labels:
[1] = without a lipid chain; cited from earlier work
CTSL-dependent viruses = settings: cited from earlier work
[2] = below that value a gel might be formed in solution; cited from earlier work
Description: Although it is important to explore how teicoplanin binds to the Lipid II moiety regardless of its phenotypes, the knowledge of the biological form of teicoplanin in an aqueous solution is of importance. Teicoplanin and its aglycon derivatives[25] use their long […] chain to attach themselves to the targeted sites. It is known that the minimum volume of solvent required to dissolve 400 mg of teicoplanin is 3 ml because, below that value, a gel might be formed in solution[10]. Teicoplanin derivatives have also been reported to create nano-sized aggregates in aqueous solution[26]. This gelati ...

[3] = Partial specific volume from solution/solvent densities (digital density meter); type: physicochemical; settings: c = 10.2 mg/mL; Anton-Paar digital density meter; PBS
Description: The partial specific volume υ¯ from solution/ solvent densities was determined using an Anton-Paar (Graz, Austria) digital density meter, and application of:1 υ¯=1/ρ0·1-ρ-ρ0/c at a concentration, c, of 10.2 mg/mL, and where ρ and ρ0 are the densities of the solution and solvent, respectively.

[4] = Hydrodynamic radius by dynamic light scattering (DLS); type: physicochemical; settings: 12.5 mg/mL; 20.0 °C; scattering angle 173°; Zetasizer Nano-S; averaged over several measurements
Description: Dynamic or quasi-elastic light scattering (DLS or QLS) measurements were made on the fixed scattering angle Zetasizer Nano-S system (Malvern instruments Ltd., Malvern UK) equipped with a 4mW He–Ne laser at a wavelength of 632.8nm[46],[47]. Samples in solution were measured in a quartz cuvette at 20.0 °C. A scattering angle of 173° was used, and collected in manual mode, requiring a measurement duration of 90 s, averaged over several measurements. The resulting data were analysed using the “Zetasizer Software (Version 7.1)” (Malvern Instruments Ltd., Malvern, UK), providing a volume distribution of translational diffusion coefficients based on a form of the CONTIN program. The viscosity of the buffer used was calculated using a solvent builder interface and takes the effects of buffer salts into account. The z-average hydrodynamic radii rz (nm), were evaluated from the z-average translational diffusion coefficients Dz by the Stokes–Einstein Eq. [47]:3 rz=kBT/{6πηoDz} where kB is the Boltzmann constant, T is the absolute temperature and η is the viscosity of the medium. […] (ii) the teicoplanin in its monomeric and multi-meric form were quasi-spheroidal and not asymmetric so there was no angular dependence of the measured Dz, values on anisotropic rotational diffusion effects—i.e. an extrapolation to zero angles was not necessary.

[5] = Global hydrodynamic fit SingleHYDFIT (E2 protocol); type: physicochemical; settings: assumed molar mass of 18-mer (33835 Da) and of 19-mer (35714 Da), same result for both
Text: To check this, we use a global fitting approach known as SingleHYDFIT[54] which combines intrinsic viscosity data with sedimentation coefficient and dynamic light scattering (hydrodynamic radius) data together, along with the molecular weight and partial specific volume. It involves the minimization of a global fitting function (Fig. 7). The E2 protocol (ratio of ellipsoid) was chosen and run twice: once with an assumed molar mass equivalent of an 18-mer (33835 Da) and once again with an assumed molar mass of 19-mer (35714 Da). Delta (Δ) was plotted against axial ratio, where values < 1 mean oblate and > 1 mean prolate (Fig. 7).

[6] = Sedimentation velocity in the analytical ultracentrifuge (SV-AUC); type: physicochemical; settings: for concentration above which the sedimentation coefficient distribution is unimodal (assembled form): SEDFIT
Description: (§1) Teicoplanin samples were prepared in a phosphate-chloride buffered saline solution (PBS, or “Paley buffer”) at pH ~ 6.8 and, by adding NaCl, adjusted to an ionic strength of I = 0.1 mol/L[38].
Experiments to determine sedimentation coefficients and sedimentation coefficient distributions were performed at a temperature of 20.0 °C (at which standardised values are easily calculated) using an Optimal XL-I analytical ultracentrifuge (Beckman Instruments, Palo Alto, CA, USA) with Rayleigh interference optics. Teicoplanin samples (400 μL ) and reference solvent (PBS, 420 μL ) were injected into channels of the 12 mm double sector epoxy cells with sapphire windows. These cells were then centrifuged at 47,500 rpm for a run time of ~ 24 h and the data obtained were analysed in SEDFIT using the least squares, ls-g*(s) processing method. This generates the sedimentation coefficient distribution, g(s) versus sT,b , where sT,b is the sedimentation coefficient, at temperature T in buffer b. The s value in Svedberg units, S = 10^-13 seconds, was then normalised to standard conditions (density ρ20,w and viscosity η20,w of water at 20.0 °C) to give s20,w from the Eq. [43]:2 s20,w=1-υ¯·ρ20,w/1-υ¯·ρT,b·ηT,b/η20,w·sT,b where ρT,b and ηT,b are the density and the viscosity of buffer b at temperature T, respectively.

SARS-CoV virus = settings: cited from earlier work
[7] = Intrinsic viscosity, capillary (rolling ball) viscometry; type: physicochemical; settings: 10.2 mg/mL; 25.0 °C; rolling ball viscometer AMVn; Solomon-Ciuta relation; phosphate-chloride buffer pH 6.8, I = 0.10 M
Description: Teicoplanin solutions were analysed using the capillary viscometer AMVn (Anton-Paar, Graz, Austria). This measurement was conducted at a temperature of 25.0 °C based on the rolling ball viscosity method. With a 1.4 mm steel ball moving in a 1.6 mm diameter glass capillary, the flow times (averaged over repeat measurements) of the solvent and solution were then determined. The relative viscosity was calculated from the equation:4 ηrel=ρ·t/ρ0·t0=ηsp+1 where ηsp is the specific viscosity. Then the intrinsic viscosity η was estimated from the Solomon-Ciuta relation[52] at a concentration of 10.2 mg/ml, which gave a sufficient flow time increment between solvent and solution:5 η≈1/c·2ηsp-2lnηrel^1/2

[8] = Sedimentation equilibrium in the analytical ultracentrifuge (SE-AUC, SEDFIT-MSTAR); type: physicochemical; settings: M* method, 0-10 mg/mL, corresponds to the unimer
[9] = as above; type: physicochemical; settings: for concentration from which the self-association (Mw,app) plateaus: range 0-10 mg/mL, hinge point and M* methods
Description: as §1
Sedimentation equilibrium experiments were used to obtain equilibrium concentration distribution profiles for absolute molecular weight measurement. An Optima XL-I analytical ultracentrifuge was also employed but at a lower temperature of 7 °C because of the longer duration of a sedimentation equilibrium experiment compared to sedimenation veloicity. To characterise the self-association/aggregation of teicoplanin, 12 mm double sector epoxy cells were loaded with the same volumes (100 μL ) of both solution and solvent and run at 45,000 rpm for a run time of ~ 48 h. Records of concentration distributions of teicoplanin at equilibrium were subsequently analysed using the model-independent SEDFIT-MSTAR algorithm. Since the non-ideality of teicoplanin is negligible we estimated that apparent weight average molar masses Mw,app were approximately equal to the true weight average molar masses Mw. The multiple concentrations used effectively represent repeats for the sedimentation equilibrium (and sedimentation velocity) experiments.
To determine the weight-average molar masses Mw of teicoplanin, the M* extrapolation method[45] and hinge point analysis, both incorporated in the sedimentation equilibrium-based SEDFIT–MSTAR software[44] were used. […] Rayleigh interference optics provides an accurate record of a sedimentation equilibrium concentration profile c(r) vs r, which means that the local concentration c(r) at the radial position r (cm) is from the rotation centre. M*(r) is a useful operational point average molar mass parameter. M*(r → rb) = Mw is the weight average molar mass over the whole macromolecular distribution, where r is the radial position at the cell base. This method is particularly advantageous for polydisperse/ or self-associating systems. As an additional check, the “hinge point method” (the value of the point weight average molar mass, Mw(r) at the “hinge point” in the sedimentation equilibrium distribution, i.e. the radial position in the cell where the local concentration c(r) = the original loading concentration) provides another estimate for the whole distribution molar mass Mw[44].

[10] = Conformational analysis from intrinsic viscosity (ELLIPS1, Einstein-Simha shape factor); type: physicochemical; settings: for axial ratio (a/b) oblate / axial ratio (a/b) prolate: ELLIPS1; for viscosity shape function ν: [η] = 3.2 mL/g; for swelling ratio vs/υ¯ through dynamic hydration: maximum value, corresponds to a/b = 1 (sphere), confirmed by SingleHYDFIT
Text: In order to interpret this in terms of a molecular shape account needs to be taken of the contribution of the swollen specific volume of the assembly in solution vs (which will be swollen due to a time-averaged association with the surrounding solvent through dynamic hydrogen bonding and other associative processes)[43]:6 [η]=ν.vs
Equation (6) ν is the Einstein-Simha shape factor. vs is likely to be higher for the glycopeptide than for proteins due to the relatively large proportion of carbohydrate which tends to have a greater affinity for solvent. In Table 1 values of the shape factor ν , and their corresponding ellipsoid of revolution axial ratios a/b were calculated based on either a prolate or oblate model, using the routine ELLIPS1 (Harding et al. 1997) for 3 cases of vs/ υ¯ , including the (unlikely) case of no swelling vs/ υ¯ = 1. The maximum value for vs/ υ¯ ~ 2, which corresponds to the minimum value of a/b = 1 (i.e. a sphere, Fig. 6), and this seems the most likely scenario.

[11] = phosphate-chloride buffer pH 6.8, I = 0.10 M, 7 °C, SEDFIT-MSTAR
[12] = assumed vs/υ¯ = 1 (no swelling)

Substance: teicoplanin aglycon
- self-association in solution [1]: dimerise weakly

Substance: vancomycin
- antiviral activity against CTSL-dependent viruses (CTSL-dependent viruses): cannot express antiviral activity

Substance: teicoplanin A2
- minimum volume of solvent required to dissolve 400 mg [2]: 3 mL
- partial specific volume υ¯ [3]: 0.64 ± 0.01 mL/g
- z-average hydrodynamic radius rz [4]: ~ 3.2 nm
- axial ratio of the assembly from SingleHYDFIT [5]: 1.0 ± 0.0
- s-value (not normalised) of teicoplanin dissolved in 6 M GuHCl ([6]; 6 M GuHCl, SV-AUC): ~ 0.7 S
- s20,w of teicoplanin dissolved in 6 M GuHCl ([6]; 6 M GuHCl, SV-AUC, normalised to water at 20.0 °C): 1.17 ± 0.01 S
- sedimentation coefficient s20,w of the self-associated assembly (upper extrapolated value) ([6]; phosphate-chloride buffer pH 6.8, I = 0.10 M, 20.0 °C, 47,500 rpm, ~24 h, Rayleigh interference optics, SEDFIT ls-g*(s), s vs c plot, 0-5 mg/mL): ~ 4.65 S
- concentration above which the sedimentation coefficient distribution is unimodal (assembled form) ([6]; phosphate-chloride buffer pH 6.8, I = 0.10 M, 20.0 °C): > 500 µg/mL
- concentration above which the sedimentation coefficient distribution is unimodal (assembled form) ([6]; phosphate-chloride buffer pH 6.8, I = 0.10 M, 20.0 °C, listed as teicoplanin): > 500 µg/mL
- sedimentation coefficient, lower extrapolated value (predicted value for a spheroidal unimer) ([6]; phosphate-chloride buffer pH 6.8, I = 0.10 M, 20.0 °C, s vs c plot extrapolated to low concentration): ~ 0.7 S
- concentration below which the assembly dissociates (separation, bimodality) ([6]; phosphate-chloride buffer pH 6.8, I = 0.10 mol/L, 20.0 °C): < 500 µg/mL
- effect on cell entry of the SARS-CoV virus (SARS-CoV virus): inhibited cell entry
- intrinsic viscosity [η] [7]: 3.2 ± 0.1 mL/g
- weight-average molar mass Mw in 6 M GuHCl [8]: 1.75 ± 0.35 kDa
- number of monomers in the assembly (mers), M* method ([9]; from plateau Mw 33,000 g/mol, buffer pH 6.8, I = 0.10 M): ~ 18 mers
- number of monomers in the assembly (mers), hinge point method ([9]; from plateau Mw 35,400 g/mol, buffer pH 6.8, I = 0.10 M): ~19 ± 1 mers
- plateau weight average molar mass Mw,app, M* method ([9]; phosphate-chloride buffer pH 6.8, I = 0.10 M, 7 °C, 45,000 rpm, ~48 h, SEDFIT-MSTAR, c from 1 mg/mL): 33,000 ± 1000 g/mol
- plateau weight average molar mass Mw,app, hinge point method ([9]; phosphate-chloride buffer pH 6.8, I = 0.10 M, 7 °C, 45,000 rpm, ~48 h, SEDFIT-MSTAR, c from 1 mg/mL up to 10 mg/mL): 35,400 ± 1000 g/mol
- apparent weight average molar mass Mw extrapolated to zero concentration (M* method) [9, 11]: 1.9 ± 0.1 kDa
- weight average molar mass extrapolated to zero concentration, hinge point method Mw(rhinge) [9, 11]: 2.7 ± 0.1 kDa
- concentration from which the self-association (Mw,app) plateaus ([9]; phosphate-chloride buffer pH 6.8, I = 0.10 M): > 1000 µg/mL
- concentration from which the self-association (Mw,app) plateaus ([9]; phosphate-chloride buffer pH 6.8, I = 0.10 M, listed as teicoplanin): 1000 µg/mL
- size of the self-associated assembly (n-mer), overall ([9]; phosphate-chloride buffer pH 6.8, I = 0.10 mol/L, AUC and viscometry combined): 18–19 mer
- swollen specific volume vs [10, 12]: 0.64 mL/g
- axial ratio (a/b) oblate [10, 12]: 5.4
- axial ratio (a/b) prolate [10, 12]: 4.3
- viscosity shape function ν [10, 12]: 5.0
- swollen specific volume vs ([10]; assumed vs/υ¯ = 1.5): 0.96 mL/g
- axial ratio (a/b) oblate ([10]; assumed vs/υ¯ = 1.5): 2.8
- axial ratio (a/b) prolate ([10]; assumed vs/υ¯ = 1.5): 2.5
- viscosity shape function ν ([10]; assumed vs/υ¯ = 1.5): 3.3
- swollen specific volume vs ([10]; assumed vs/υ¯ = 2): 1.28 mL/g
- axial ratio (a/b) oblate ([10]; assumed vs/υ¯ = 2): 1
- axial ratio (a/b) prolate ([10]; assumed vs/υ¯ = 2): 1
- viscosity shape function ν ([10]; assumed vs/υ¯ = 2): 2.5
- swelling ratio vs/υ¯ through dynamic hydration [10]: ~ 2
- swelling ratio vs/υ¯ through dynamic hydration ([10]; listed as teicoplanin): 2
